Marks after values point to notes of the source that are not given here.
System: urease
Assay: Testing for urease-inhibiting effect in soil (NH3-N release from urea)
Format: biochemical
Conditions: 30 g soil at 40% of max water capacity, 50 mg urea
Description: 30 g soil set to 40% of the maximum water capacity are added with 1 ml urea solution corresponding to 50 mg urea. At the same time the active substance is applied, preferably dissolved in the urea solution. The concentration details for the individual tested active substances given in the following table relate to the quantity of carbamide nitrogen used in the test. The soil, on the surface of which the urea solution (with and without the active substance) is applied is located in an airtight sealed container into which a receiver is inserted at the same time which collects the ammonia released from the urea as ammonium. By rinsing the receiver daily and analysing the NH4—N quantities contained, the NH3—N-release from the urea is determined.
From the summation of the ammonium quantities in the receiver, the percentage inhibition of the urea hydrolysis dependently upon time is calculated and from these values the t50 value is determined mathematically.
The t50 value is understood to be the time in days since the start of the test at which the urea hydrolysis inhibition is still 50%.

Row | SMILES | urease inhibition t50 value (time in days at which the urea hydrolysis inhibition is still 50%) (conc. 0.5 % HS-N-related (in relation to urea nitrogen used)) [days] | urease inhibition t50 value (time in days at which the urea hydrolysis inhibition is still 50%) (conc. 0.05 % HS-N-related (in relation to urea nitrogen used))
1 | Cc1cccc(NP(N)(N)=O)c1 [Compound 2, N-(3-methylphenyl)phosphoric acid triamide] | 11.2 | –
2 | NP(N)(=O)Nc1ccccc1[N+](=O)[O-] [Compound 1, N-(2-nitrophenyl)phosphoric acid triamide] | – | >25^b) d

Reference: patent US7855189B2, “N-phenylphosphoric acid triamides, method for the production thereof and their use as agents for regulating or inhibiting enzymatic urea hydrolysis” (SKW Stickstoffwerke Piesteritz GmbH, priority 2004, dated 2010)
